Test results reported in ChEMBL document CHEMBL4033742, “Novel 3-fluoro-6-methoxyquinoline derivatives as inhibitors of bacterial DNA gyrase and topoisomerase IV” (Bioorg Med Chem Lett, 2017).
In brackets after ≈: the same amount, converted by molar mass.

What was measured:
[1] = Inhibition of Staphylococcus aureus DNA gyrase
[2] = biological target: Voltage-gated inwardly rectifying potassium channel KCNH2 (Homo sapiens, UniProt Q12809); assay: Inhibition of human ERG
Staphylococcus aureus [3] = assay: Antibacterial activity against fluoroquinolone-sensitive Staphylococcus aureus 1146; format: functional
Staphylococcus aureus [4] = assay: Antibacterial activity against fluoroquinolone-resistant Staphylococcus aureus 1095; format: functional
Streptococcus pyogenes = assay: Antibacterial activity against Streptococcus pyogenes; format: functional
Staphylococcus aureus [5] = assay: Antibacterial activity against Staphylococcus aureus containing DNA gyrase D83N mutations; format: functional
[6] = Inhibition of Staphylococcus aureus DNA topoisomerase 4
Staphylococcus aureus [7] = assay: Antibacterial activity against Staphylococcus aureus containing DNA gyrase M121K mutations; format: functional
Staphylococcus aureus [8] = assay: Antibacterial activity against Staphylococcus aureus; format: functional
[9] = Ratio of fAUC in fluoroquinolone-resistant Staphylococcus aureus infected mouse neutropenic thigh model to MIC for fluoroquinolone-resistant Staphylococcus aureus
[10] = Clearance in mouse at 10 mg/kg, iv; format: ADME, organism-based; settings: in vivo
[11] = Fraction unbound in rat plasma; format: ADME, cell-free
[12] = Half life in mouse at 10 mg/kg, iv; format: ADME, organism-based; settings: in vivo
[13] = Volume of distribution at steady state in mouse at 10 mg/kg, iv; format: ADME, organism-based; settings: in vivo, read-out: Vdss
Staphylococcus aureus [14] = assay: Antibacterial activity against fluoroquinolone-resistant Staphylococcus aureus infected in mouse neutropenic thigh model assessed as static dose required for bacterial stasis; format: functional
[15] = Clearance in rat at 2 mg/kg, iv; format: ADME, organism-based; settings: in vivo
[16] = Fraction unbound in human plasma; format: ADME, cell-free
[17] = Volume of distribution at steady state in rat at 2 mg/kg, iv; format: ADME, organism-based; settings: in vivo, read-out: Vdss
[18] = Half life in rat at 2 mg/kg, iv; format: ADME, organism-based; settings: in vivo
[19] = Fraction unbound in mouse plasma; format: ADME, cell-free
[20] = Stability assessed as increase in metabolism rate under in-vitro conditions; format: physicochemical
Cavia porcellus [21] = assay: Cardiotoxicity in anesthetized guinea pig model assessed as increase in cardiac alternans at fCmax level; format: toxicity
Cavia porcellus [22] = assay: Cardiotoxicity in anesthetized guinea pig model assessed as prolongation of monophasic action potential duration at fCmax level; format: toxicity
Cavia porcellus [23] = assay: fCmax in anesthetized guinea pig model; format: ADME
[24] = Cmax in human; format: ADME

Chain of Voltage-gated inwardly rectifying potassium channel KCNH2 (Q12809 whole entry): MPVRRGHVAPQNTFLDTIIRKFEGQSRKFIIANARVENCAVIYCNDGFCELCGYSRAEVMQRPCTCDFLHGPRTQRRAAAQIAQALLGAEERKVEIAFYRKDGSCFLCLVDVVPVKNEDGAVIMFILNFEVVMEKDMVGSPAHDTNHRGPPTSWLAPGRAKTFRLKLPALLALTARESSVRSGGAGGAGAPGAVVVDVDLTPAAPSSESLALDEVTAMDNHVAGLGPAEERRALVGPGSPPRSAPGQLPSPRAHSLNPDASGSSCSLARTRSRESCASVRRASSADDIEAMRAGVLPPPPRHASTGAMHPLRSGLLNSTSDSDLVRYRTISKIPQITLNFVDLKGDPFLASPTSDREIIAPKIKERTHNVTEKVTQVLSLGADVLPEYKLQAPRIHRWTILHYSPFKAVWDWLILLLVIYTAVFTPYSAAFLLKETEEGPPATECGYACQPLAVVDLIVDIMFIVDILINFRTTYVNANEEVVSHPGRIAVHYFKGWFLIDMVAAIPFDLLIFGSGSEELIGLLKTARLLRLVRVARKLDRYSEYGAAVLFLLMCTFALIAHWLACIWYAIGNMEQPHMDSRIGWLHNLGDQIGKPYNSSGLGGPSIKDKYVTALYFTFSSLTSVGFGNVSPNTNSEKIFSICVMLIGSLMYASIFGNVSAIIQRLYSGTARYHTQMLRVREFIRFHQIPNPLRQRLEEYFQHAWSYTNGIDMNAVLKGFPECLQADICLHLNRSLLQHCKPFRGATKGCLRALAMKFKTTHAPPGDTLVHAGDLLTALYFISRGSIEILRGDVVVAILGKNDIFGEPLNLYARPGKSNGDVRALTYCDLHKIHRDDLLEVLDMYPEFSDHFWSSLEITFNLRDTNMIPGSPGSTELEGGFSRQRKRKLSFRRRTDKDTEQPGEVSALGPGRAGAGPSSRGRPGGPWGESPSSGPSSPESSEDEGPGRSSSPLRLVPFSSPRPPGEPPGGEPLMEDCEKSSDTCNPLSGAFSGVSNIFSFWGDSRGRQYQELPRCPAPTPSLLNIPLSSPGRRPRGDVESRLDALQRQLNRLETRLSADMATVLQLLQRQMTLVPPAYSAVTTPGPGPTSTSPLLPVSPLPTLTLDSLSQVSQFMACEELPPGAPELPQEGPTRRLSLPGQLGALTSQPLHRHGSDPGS

Compound	IC50 [1]	IC50 [2]	MIC (Staphylococcus aureus [3])	MIC (Staphylococcus aureus [4])	MIC90 (Streptococcus pyogenes)	MIC (Staphylococcus aureus [5])	IC50 [6]	MIC (Staphylococcus aureus [7])	MIC90 (Staphylococcus aureus [8])	other results
O=c1ccc2ncc(F)c3c2n1C[C@@]3(O)CN1CCC(NCc2cc3c(cn2)OCCO3)CC1	0.448 µM	> 300 µM	0.125 µg/mL (≈ 0.267 µM)	0.31 µg/mL (≈ 0.663 µM)	0.125 µg/mL (≈ 0.267 µM)	4 µg/mL (≈ 8.56 µM)	4.96 µM	8 µg/mL (≈ 17.1 µM)	0.5 µg/mL (≈ 1.07 µM)	
COc1ccc2nccc([C@@H](O)CC[C@@H]3CCN(CCSc4cccs4)C[C@@H]3C(=O)O)c2c1	2.42 µM						84.6 µM			
N#Cc1ccc2ccc(=O)n(CCN3CC[C@H](NCc4cc5c(cn4)OCCO5)[C@H](F)C3)c2c1										Ratio [9]: 36
COc1ccc2ncc(F)c([C@@H](O)CC[C@@H]3CCN(C4CC(c5ccccc5)C4)C[C@@H]3C(=O)O)c2c1 (stereo not given in full)	1.15 µM	22.3 µM	0.069 µg/mL (≈ 0.14 µM)	0.125 µg/mL (≈ 0.254 µM)	1 µg/mL (≈ 2.03 µM)	22.6 µg/mL (≈ 45.9 µM)	15.9 µM	8 µg/mL (≈ 16.2 µM)	0.25 µg/mL (≈ 0.508 µM)	clearance [10]: 17.3 mL/min/kg; fraction unbound [11]: 0.277 to 0.334; half-life [12]: 40.2 min; Vd [13]: 1.01 L/kg; Activity (Staphylococcus aureus [14]): 92.1 mg/kg/day; clearance [15]: 18.4 mL/min/kg; fraction unbound [16]: 0.122 to 0.211; Vd [17]: 1.82 L/kg; half-life [18]: 68.4 min; fraction unbound [19]: 0.15 to 0.158
CN[C@H](CC(C)C)C(=O)N[C@H]1C(=O)N[C@@H](CC(N)=O)C(=O)N[C@H]2C(=O)N[C@H]3C(=O)N[C@H](C(=O)N[C@H](C(=O)O)c4cc(O)cc(O)c4-c4cc3ccc4O)[C@H](O)c3ccc(c(Cl)c3)Oc3cc2cc(c3O[C@@H]2O[C@H](CO)[C@@H](O)[C@H](O)[C@H]2O[C@H]2C[C@](C)(N)[C@H](O)[C@H](C)O2)Oc2ccc(cc2Cl)[C@H]1O [VANCOMYCIN]										Activity (Staphylococcus aureus [14]): 29 mg/kg/day
COc1ccc2ncc(F)c([C@@H](O)CC[C@@H]3CCN(C4CC(c5ccccn5)C4)C[C@@H]3C(=O)O)c2c1 (stereo not given in full)	3.13 µM		1 µg/mL (≈ 2.03 µM)	16 µg/mL (≈ 32.4 µM)		> 64 µg/mL	50 µM			
COc1ccc2nccc([C@@H](O)CC[C@@H]3CCN(C4CC(c5c(F)cccc5F)C4)C[C@@H]3C(=O)O)c2c1 (stereo not given in full)	2.93 µM						100 to 120 µM			
COc1ccc2nccc([C@@H](O)CC[C@@H]3CCN(C4CC(c5cc(F)ccc5F)C4)C[C@@H]3C(=O)O)c2c1 (stereo not given in full)	3 µM						9.62 µM			
COc1ccc2ncc(F)c([C@@H](O)CC[C@@H]3CCN(C4CC(c5cc(F)ccc5F)C4)C[C@@H]3C(=O)O)c2n1 (stereo not given in full)	1.43 µM	45 µM	≤ 0.0625 µg/mL	0.088 µg/mL (≈ 0.166 µM)	0.5 to 1 µg/mL (≈ 0.944 to 1.89 µM)	2.5 µg/mL (≈ 4.72 µM)	5.09 µM	2.3 µg/mL (≈ 4.34 µM)	0.125 to 0.25 µg/mL (≈ 0.236 to 0.472 µM)	clearance [10]: 34 mL/min/kg; fraction unbound [11]: 0.121 to 0.189; half-life [12]: 16.8 min; Vd [13]: 0.825 L/kg; Activity (Staphylococcus aureus [14]): 80.7 mg/kg/day; clearance [15]: 32.7 mL/min/kg; fraction unbound [16]: 0.036 to 0.037; Vd [17]: 1.89 L/kg; half-life [18]: 40.2 min; fraction unbound [19]: 0.131 to 0.242
COc1ccc2ncc(F)c([C@@H](O)CC[C@@H]3CCN(C4CC(c5cccc(F)c5F)C4)C[C@@H]3C(=O)O)c2c1 (stereo not given in full)	0.78 µM	25 µM	≤ 0.0625 µg/mL	≤ 0.0625 µg/mL		8 µg/mL (≈ 15.1 µM)	7.5 µM	4 µg/mL (≈ 7.57 µM)		
COc1ccc2ncc(F)c([C@@H](O)CC[C@@H]3CCN(C4CC(c5ccno5)C4)C[C@@H]3C(=O)O)c2c1 (stereo not given in full)	2.68 µM	> 300 µM	0.5 µg/mL (≈ 1.03 µM)	4 µg/mL (≈ 8.27 µM)		> 64 µg/mL	35.1 µM			
COc1ccc2ncc(F)c([C@@H](O)CC[C@@H]3CCN(C4CC(c5ccccc5F)C4)C[C@@H]3C(=O)O)c2c1 (stereo not given in full)	0.78 µM		≤ 0.0625 µg/mL	0.125 µg/mL (≈ 0.245 µM)	0.5 µg/mL (≈ 0.979 µM)	16 µg/mL (≈ 31.3 µM)	19 µM	16 µg/mL (≈ 31.3 µM)	0.125 µg/mL (≈ 0.245 µM)	
COc1ccc2ncc(F)c([C@@H](O)CC[C@@H]3CCN(C4CC(c5cc(F)cc(F)c5F)C4)C[C@@H]3C(=O)O)c2c1 (stereo not given in full)	1.56 µM		≤ 0.0625 µg/mL	≤ 0.0625 µg/mL		1 µg/mL (≈ 1.83 µM)	4.7 µM	2 µg/mL (≈ 3.66 µM)		Stability [20]: Unstable
COc1ccc2nccc([C@@H](O)CC[C@@H]3CCN(C4CC(c5ccccc5)C4)C[C@@H]3C(=O)O)c2c1 (stereo not given in full)	1.19 µM				1 to 2 µg/mL (≈ 2.11 to 4.21 µM)		32.1 µM	≥ 64 µg/mL	0.25 to 1 µg/mL (≈ 0.527 to 2.11 µM)	clearance [10]: 36 mL/min/kg; fraction unbound [11]: 0.296 to 0.437; half-life [12]: 20.4 min; Vd [13]: 1.06 L/kg; Activity (Staphylococcus aureus [14]): 123.1 mg/kg/day; fraction unbound [16]: 0.079 to 0.155; half-life [18]: 19.8 min; fraction unbound [19]: 0.129 to 0.246
COc1ccc2ncc(F)c([C@@H](O)CC[C@@H]3CCN(C4CC(c5ncccc5F)C4)C[C@@H]3C(=O)O)c2c1 (stereo not given in full)	6.25 µM	10.7 µM	0.125 µg/mL (≈ 0.244 µM)	0.5 µg/mL (≈ 0.977 µM)	2 µg/mL (≈ 3.91 µM)	32 µg/mL (≈ 62.6 µM)	30 µM	32 µg/mL (≈ 62.6 µM)	1 µg/mL (≈ 1.95 µM)	
COc1ccc2ncc(F)c([C@@H](O)CC[C@@H]3CCN(C4CC(c5cc(F)ccc5F)C4)C[C@@H]3C(=O)O)c2c1 (stereo not given in full)	0.977 µM	85.9 µM	0.088 µg/mL (≈ 0.166 µM)	0.11 µg/mL (≈ 0.208 µM)	0.25 to 0.5 µg/mL (≈ 0.473 to 0.946 µM)	3.4 µg/mL (≈ 6.43 µM)	5.47 µM	2 µg/mL (≈ 3.78 µM)	0.125 µg/mL (≈ 0.236 µM)	clearance [10]: 13.7 mL/min/kg; fraction unbound [11]: 0.197; Activity (Cavia porcellus [21]): Non-Toxic; half-life [12]: 63 min; Vd [13]: 1.24 L/kg; Activity (Staphylococcus aureus [14]): 79.7 to 82.8 mg/kg/day; clearance [15]: 30.9 mL/min/kg; fraction unbound [16]: 0.054; Ratio [9]: 39; Vd [17]: 1.82 L/kg; half-life [18]: 40.8 min; Activity (Cavia porcellus [22]): Non-Toxic; fraction unbound [19]: 0.201; fCmax (Cavia porcellus [23]): 27.5 µM
O=c1ccc2ncc(=O)n3c2n1C[C@H]3CN1CCC(NCc2cc3c(cn2)OCCC3)CC1 [GEPOTIDACIN]		1310 µM				8 to 32 µg/mL (≈ 17.8 to 71.3 µM)				Ratio [9]: 13.4; Cmax [24]: 7000 to 13000 ng/mL
COc1ccc2ncc(F)c([C@@H](O)CC[C@@H]3CCN(C4CC(c5cccc(F)c5)C4)C[C@@H]3C(=O)O)c2c1 (stereo not given in full)	0.78 µM		≤ 0.0625 µg/mL	0.25 µg/mL (≈ 0.49 µM)	0.5 µg/mL (≈ 0.979 µM)	16 µg/mL (≈ 31.3 µM)	19 µM	16 µg/mL (≈ 31.3 µM)	0.25 µg/mL (≈ 0.49 µM)	
COc1ccc2ncc(F)c([C@@H](O)CC[C@@H]3CCN(C4CC(c5cncc(F)c5)C4)C[C@@H]3C(=O)O)c2c1 (stereo not given in full)	4.7 µM		2 µg/mL (≈ 3.91 µM)	32 µg/mL (≈ 62.6 µM)		> 64 µg/mL	> 120 µM			
COc1ccc2ncc(F)c([C@@H](O)CC[C@@H]3CCN(C4CC(c5c(F)cccc5F)C4)C[C@@H]3C(=O)O)c2c1 (stereo not given in full)	4.61 µM	45.3 µM	≤ 0.063 µg/mL	0.079 µg/mL (≈ 0.149 µM)	0.5 µg/mL (≈ 0.946 µM)	3.2 µg/mL (≈ 6.05 µM)	18.3 µM	2.8 µg/mL (≈ 5.3 µM)	0.125 µg/mL (≈ 0.236 µM)	
COc1ccc2ncc(F)c([C@@H](O)CC[C@@H]3CCN(C4CC(c5cccs5)C4)C[C@@H]3C(=O)O)c2c1 (stereo not given in full)	0.78 µM		≤ 0.0625 µg/mL	0.125 µg/mL (≈ 0.251 µM)	0.5 µg/mL (≈ 1 µM)	11.3 µg/mL (≈ 22.7 µM)	9.4 µM	16 µg/mL (≈ 32.1 µM)	0.125 µg/mL (≈ 0.251 µM)	
COc1ccc2ncc(F)c([C@@H](O)CC[C@@H]3CCN(C4CC(c5ccc(F)s5)C4)C[C@@H]3C(=O)O)c2c1 (stereo not given in full)	0.78 µM		≤ 0.0625 µg/mL	≤ 0.0625 µg/mL	0.5 µg/mL (≈ 0.968 µM)	16 µg/mL (≈ 31 µM)	19 µM	16 µg/mL (≈ 31 µM)	0.125 µg/mL (≈ 0.242 µM)	
COc1ccc2ncc(F)c([C@@H](O)CC[C@@H]3CCN(CCSc4cccs4)C[C@@H]3C(=O)O)c2c1	1.56 µM						30.4 µM			
COc1ccc2ncc(F)c([C@@H](O)CC[C@@H]3CCN(C4CC(c5cc(F)cc(F)c5)C4)C[C@@H]3C(=O)O)c2c1 (stereo not given in full)	1.2 µM		0.125 µg/mL (≈ 0.236 µM)	0.35 µg/mL (≈ 0.662 µM)	1 µg/mL (≈ 1.89 µM)	5.7 µg/mL (≈ 10.8 µM)	6.25 µM		0.25 µg/mL (≈ 0.473 µM)	
COc1ccc2ncc(F)c(C[C@H](O)[C@@H]3CC[C@@H](NCc4cc5c(nn4)OCCS5)CO3)c2n1										Ratio [9]: 43
